Laboratory results as given in patent US8372854B2, “Pyrrolo[2,3-D]pyrimidine compounds” (Pfizer Inc., priority 2009, dated 2013).

How the values were obtained:
Assay type in all cases: biochemical
JAK1 = molecular target: T1, JAK1 (Homo sapiens, UniProt P23458); assay: JAK enzymatic assay (peptide mobility shift), JAK1; conditions: recombinant JAK1 20 nM, ATP 40 μM, 1 μM IRS-1 peptide, 240 minutes
T1 construct: purchased Invitrogen Corporation, Madison, Wis; PV4775
Source text: (§1) Recombinant JAK1 (Catalog Number PV4775), JAK2 (Catalog Number PV4210) and JAK3 (Catalog Number PV3855) were purchased from (Invitrogen Corporation, Madison, Wis.). Tyk2 (His-Tyk2 (888-1182, C936S, C1142S)) used in this study was expressed and purified at Pfizer Laboratories. Adenosine 5′-triphosphate (ATP) was obtained from (Sigma Chemical Company, St. Louis, Mo.). The JAKtide peptide (peptide sequence, FITC-[…]) used for the JAK2 and JAK3 assays and the IRS-1 peptide (peptide sequence, 5-FAM-[…]) used for the JAK1 and Tyk2 assays were purchased from (American Peptide Company, Sunnyvale, Calif.). Coating Reagent 3 was purchased from (Caliper Life Sciences, Hopkinton, Mass.).
(§2) A peptide mobility shift assay was used to quantify the phosphorylation of the JAKtide (JAK2 and JAK3) or the IRS-1 peptide ([…] and Tyk2). Reactions were carried out in a 384-well plate (Matrical MP-101) in a 10 μL total volume. Reaction mixtures contained 20 mM HEPES, pH 7.4, 10 mM magnesium chloride, 0.01% bovine serum albumin (BSA), 0.0005% Tween-20, ATP (4 μM for JAK2 and JAK3, 40 μM for JAK1 and 7 μM for Tyk2)), 2% DMSO and 1 μM peptide substrate (JAKtide for JAK2 and JAK3 and IRS-1 peptide for JAK1 and Tyk2). Compounds were diluted serially in 100% dimethyl sulfoxide and tested in an 11 point dose response in duplicate or quadruplicate (200 nl of compound/DMSO was added per 10 μL reaction). The reactions were initiated by the addition of enzyme to the final concentration of 2 nM JAK2, 1 nM JAK3, 12 nM Tyk2 or 20 nM JAK1. The assay was run for 240 minutes for JAK1, 150 minutes for JAK2, 90 minutes for JAK3 and 70 minutes for Tyk2. The assays were stopped at the specified times with 20 uL of 140 mM HEPES, 22.5 mM EDTA and 0.15% Coating Reagent 3. The plates were placed on a LabChip 3000 (LC3000) instrument from (Caliper Life Sciences) to measure the formation of phosphorylated peptide. Data was analyzed using Hits Well Analyzer Software from (Caliper Life Sciences) to obtain the amount of product formed.
(§3) Data was then imported into an internal application where each data point is expressed as % inhibition based on uninhibited and no enzyme controls. Dose-response data is then fit using a 4 parameter logistic equation (Equation 1) to determine an IC50.
(§4) Where max is the fitted uninhibited value, min is the fitted complete inhibition value, and s is the slope factor.

JAK3 = molecular target: T2, JAK3 (Homo sapiens, UniProt P52333); assay: JAK enzymatic assay (peptide mobility shift), JAK3; conditions: recombinant JAK3 1 nM, ATP 4 μM, 1 μM JAKtide peptide, 90 minutes
T2 construct: purchased Invitrogen Corporation, Madison, Wis; PV3855
T2 sequence (P52333 1-1124): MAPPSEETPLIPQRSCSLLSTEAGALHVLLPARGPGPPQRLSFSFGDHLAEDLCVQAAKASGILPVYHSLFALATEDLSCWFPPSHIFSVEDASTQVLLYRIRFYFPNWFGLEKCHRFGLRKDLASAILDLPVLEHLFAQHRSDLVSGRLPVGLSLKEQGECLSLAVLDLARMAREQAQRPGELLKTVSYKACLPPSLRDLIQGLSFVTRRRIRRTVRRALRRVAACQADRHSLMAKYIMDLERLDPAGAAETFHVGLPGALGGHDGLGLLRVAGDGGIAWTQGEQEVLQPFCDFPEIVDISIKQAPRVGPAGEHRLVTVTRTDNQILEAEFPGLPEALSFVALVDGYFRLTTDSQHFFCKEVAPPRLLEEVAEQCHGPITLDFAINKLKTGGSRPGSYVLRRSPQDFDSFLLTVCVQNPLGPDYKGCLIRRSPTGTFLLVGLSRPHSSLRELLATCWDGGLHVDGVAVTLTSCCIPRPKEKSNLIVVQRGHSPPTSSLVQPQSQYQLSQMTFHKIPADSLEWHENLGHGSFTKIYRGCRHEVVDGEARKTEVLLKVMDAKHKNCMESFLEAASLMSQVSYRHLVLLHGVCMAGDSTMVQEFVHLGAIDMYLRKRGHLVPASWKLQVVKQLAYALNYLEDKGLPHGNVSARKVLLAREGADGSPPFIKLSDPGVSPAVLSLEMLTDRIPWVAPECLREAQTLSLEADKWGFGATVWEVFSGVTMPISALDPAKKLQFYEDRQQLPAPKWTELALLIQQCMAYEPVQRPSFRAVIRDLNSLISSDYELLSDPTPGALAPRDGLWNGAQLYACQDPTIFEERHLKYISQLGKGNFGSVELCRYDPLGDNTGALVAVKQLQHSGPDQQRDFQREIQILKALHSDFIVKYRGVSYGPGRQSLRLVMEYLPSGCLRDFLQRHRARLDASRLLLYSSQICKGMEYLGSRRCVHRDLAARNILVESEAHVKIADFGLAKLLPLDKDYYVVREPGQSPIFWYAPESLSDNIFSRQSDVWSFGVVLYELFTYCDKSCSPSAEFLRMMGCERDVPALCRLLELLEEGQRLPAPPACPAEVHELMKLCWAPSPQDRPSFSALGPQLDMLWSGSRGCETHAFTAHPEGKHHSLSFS
Source text: Recombinant JAK1 (Catalog Number PV4775), JAK2 (Catalog Number PV4210) and JAK3 (Catalog Number PV3855) were purchased from (Invitrogen Corporation, Madison, Wis.). Tyk2 (His-Tyk2 (888-1182, C936S, C1142S)) used in this study was expressed and purified at Pfizer Laboratories. Adenosine 5′-triphosphate (ATP) was obtained from (Sigma Chemical Company, St. Louis, Mo.). […] Coating Reagent 3 was purchased from (Caliper Life Sciences, Hopkinton, Mass.).
as §2, §3, §4

JAK2 = molecular target: T3, JAK2 (Homo sapiens, UniProt O60674); assay: JAK enzymatic assay (peptide mobility shift), JAK2; conditions: recombinant JAK2 2 nM, ATP 4 μM, 1 μM JAKtide peptide, 150 minutes
T3 construct: purchased Invitrogen Corporation, Madison, Wis; PV4210
T3 sequence (O60674 whole entry): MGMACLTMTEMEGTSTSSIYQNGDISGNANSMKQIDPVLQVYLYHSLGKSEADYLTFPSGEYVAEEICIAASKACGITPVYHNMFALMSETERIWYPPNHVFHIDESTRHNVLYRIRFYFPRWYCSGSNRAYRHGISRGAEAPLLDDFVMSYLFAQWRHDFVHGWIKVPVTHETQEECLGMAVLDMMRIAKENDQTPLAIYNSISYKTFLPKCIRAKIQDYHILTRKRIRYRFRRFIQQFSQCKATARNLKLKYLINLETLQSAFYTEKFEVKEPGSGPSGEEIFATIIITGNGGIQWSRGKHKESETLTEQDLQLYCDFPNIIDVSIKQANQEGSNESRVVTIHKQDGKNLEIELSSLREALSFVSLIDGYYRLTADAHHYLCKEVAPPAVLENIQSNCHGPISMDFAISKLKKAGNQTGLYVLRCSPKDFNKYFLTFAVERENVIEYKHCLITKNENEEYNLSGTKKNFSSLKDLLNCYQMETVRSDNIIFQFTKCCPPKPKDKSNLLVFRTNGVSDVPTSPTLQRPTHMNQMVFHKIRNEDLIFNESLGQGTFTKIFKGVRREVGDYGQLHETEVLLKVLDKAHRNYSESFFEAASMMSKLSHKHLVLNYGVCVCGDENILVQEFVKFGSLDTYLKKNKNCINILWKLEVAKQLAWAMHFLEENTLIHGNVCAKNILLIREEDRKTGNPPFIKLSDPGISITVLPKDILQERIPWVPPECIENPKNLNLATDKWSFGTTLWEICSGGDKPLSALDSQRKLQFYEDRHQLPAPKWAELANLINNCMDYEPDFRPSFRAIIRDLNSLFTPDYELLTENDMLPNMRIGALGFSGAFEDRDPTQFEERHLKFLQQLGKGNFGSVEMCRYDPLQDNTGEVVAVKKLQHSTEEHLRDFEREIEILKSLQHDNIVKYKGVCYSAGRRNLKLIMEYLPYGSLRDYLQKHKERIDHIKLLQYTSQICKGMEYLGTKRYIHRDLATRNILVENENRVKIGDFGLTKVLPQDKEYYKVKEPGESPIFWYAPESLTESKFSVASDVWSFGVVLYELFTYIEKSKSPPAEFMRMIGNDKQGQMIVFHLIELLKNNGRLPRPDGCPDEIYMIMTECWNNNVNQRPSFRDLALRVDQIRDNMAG
Source text: as §1, §2, §3, §4

T1 sequence (P23458 whole entry): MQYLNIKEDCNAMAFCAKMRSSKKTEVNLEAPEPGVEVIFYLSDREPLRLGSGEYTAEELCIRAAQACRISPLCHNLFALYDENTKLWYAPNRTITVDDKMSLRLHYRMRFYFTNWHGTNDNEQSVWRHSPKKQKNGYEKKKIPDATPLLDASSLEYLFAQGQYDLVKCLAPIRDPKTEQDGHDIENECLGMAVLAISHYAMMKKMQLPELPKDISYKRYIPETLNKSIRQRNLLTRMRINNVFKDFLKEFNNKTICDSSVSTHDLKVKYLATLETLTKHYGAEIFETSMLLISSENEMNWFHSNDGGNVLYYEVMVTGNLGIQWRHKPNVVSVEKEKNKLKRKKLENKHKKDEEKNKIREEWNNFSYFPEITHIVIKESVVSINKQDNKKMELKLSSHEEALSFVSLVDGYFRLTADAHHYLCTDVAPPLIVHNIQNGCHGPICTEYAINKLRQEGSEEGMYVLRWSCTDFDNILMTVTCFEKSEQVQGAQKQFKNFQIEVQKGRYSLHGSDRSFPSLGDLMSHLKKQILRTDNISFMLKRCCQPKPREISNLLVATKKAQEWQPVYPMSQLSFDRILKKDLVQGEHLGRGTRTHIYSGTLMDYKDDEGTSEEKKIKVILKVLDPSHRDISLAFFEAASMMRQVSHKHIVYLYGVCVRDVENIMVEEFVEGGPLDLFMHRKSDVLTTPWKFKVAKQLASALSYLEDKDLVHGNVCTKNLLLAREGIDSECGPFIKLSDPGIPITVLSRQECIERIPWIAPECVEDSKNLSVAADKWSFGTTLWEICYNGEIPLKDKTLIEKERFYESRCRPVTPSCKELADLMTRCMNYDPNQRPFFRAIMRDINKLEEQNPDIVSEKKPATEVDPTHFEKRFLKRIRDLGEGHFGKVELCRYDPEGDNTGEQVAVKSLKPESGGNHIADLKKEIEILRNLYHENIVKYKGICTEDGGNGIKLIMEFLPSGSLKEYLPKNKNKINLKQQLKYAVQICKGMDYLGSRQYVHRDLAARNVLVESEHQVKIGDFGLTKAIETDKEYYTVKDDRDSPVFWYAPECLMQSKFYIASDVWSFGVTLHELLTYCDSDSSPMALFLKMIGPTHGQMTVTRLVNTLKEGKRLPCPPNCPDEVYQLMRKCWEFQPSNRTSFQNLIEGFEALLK

Row | SMILES | IC50 (JAK1) | IC50 (JAK3) | IC50 (JAK2)
1 | CN(c1ncnc2[nH]ccc12)[C@H]1CC[C@@H](CS(=O)(=O)NCc2ccccc2)CC1 [Example 54, N-benzyl-1-{cis-4-[methyl(7H-pyrrolo[2,3-d]pyrimidin-4-yl)amino]cyclohexyl}-methanesulfonamide] | 19.3 nM | 162 nM | 54.2 nM
2 | COc1ccc(CNS(=O)(=O)C[C@H]2CC[C@H](N(C)c3ncnc4[nH]ccc34)CC2)cc1 [Example 18, N-(4-methoxybenzyl)-1-{trans-4-[methyl(7H-pyrrolo[2,3-d]-pyrimidin-4-yl)amino]-cyclo-hexyl}methanesulfonamide] | 21.3 nM | 175 nM | 27.5 nM
3 | CN(c1ncnc2[nH]ccc12)[C@H]1CC[C@H](CS(=O)(=O)NCCc2ccc(C(F)(F)F)cc2)CC1 [Example 12, 1-{trans-4-[methyl(7H-pyrrolo[2,3-d]pyrimidin-4-yl)amino]cyclohexyl}-N-{2-[4-(trifluoromethyl)-phenyl]ethyl}-methanesulfonamide] | 16.5 nM | 511 nM | 55.5 nM
4 | COc1ccc(CNS(=O)(=O)C[C@H]2CC[C@@H](N(C)c3ncnc4[nH]ccc34)CC2)cc1 [Example 56, N-(4-methoxybenzyl)-1-{cis-4-[methyl(7H-pyrrolo[2,3-d]pyrimidin-4-yl)amino]cyclohexyl}-methanesulfonamide] | 10.7 nM | 114 nM | 36.6 nM
5 | Cc1nn(C)cc1CNS(=O)(=O)C[C@H]1CC[C@H](N(C)c2ncnc3[nH]ccc23)CC1 [Example 52, N-[(1,3-dimethyl-1H-pyrazol-4-yl)methyl]-1-{trans-4-[methyl(7H-pyrrolo[2,3-d]pyrimidin-4-yl)amino]cyclohexyl}-methanesulfonamide] | 24 nM | 762 nM | 107 nM
6 | CN(c1ncnc2[nH]ccc12)[C@H]1CC[C@@H](CS(=O)(=O)NCCc2ccccc2)CC1 [Example 53, 1-{cis-4-[methyl(7H-pyrrolo[2,3-d]pyrimidin-4-yl)amino]cyclohexyl}-N-(2-phenylethyl)-methanesulfonamide] | 11.5 nM | 119 nM | 34.7 nM
7 | CN(c1ncnc2[nH]ccc12)[C@H]1CC[C@H](CS(=O)(=O)Nc2ccn[nH]2)CC1 [Example 22, 1-{trans-4-[methyl(7H-pyrrolo[2,3-d]pyrimidin-4-yl)amino]cyclohexyl}-N-1H-pyrazol-5-yl-methanesulfonamide] | 15.2 nM | 241 nM | 32.4 nM
8 | CN(CCO)S(=O)(=O)C[C@H]1CC[C@H](N(C)c2ncnc3[nH]ccc23)CC1 [Example 17, N-(2-hydroxyethyl)-N-methyl-1-{trans-4-[methyl-(7H-pyrrolo[2,3-d]pyrimidin-4-yl)amino]cyclohexyl}-methanesulfonamide] | 16.3 nM | 332 nM | 44.2 nM
9 | CN(c1ncnc2[nH]ccc12)[C@H]1CC[C@H](CS(=O)(=O)Nc2ccc(CC#N)cc2)CC1 [Example 20, N-[4-(cyanomethyl)phenyl]-1-{trans-4-[methyl(7H-pyrrolo[2,3-d]pyrimidin-4-yl)amino]cyclohexyl}methane-sulfonamide] | 9.58 nM | 96.1 nM | 38.1 nM
10 | Cc1cc(NS(=O)(=O)C[C@H]2CC[C@H](N(C)c3ncnc4[nH]ccc34)CC2)n[nH]1 [Example 23, N-(5-methyl-1H-pyrazol-3-yl)-1-{trans-4-[methyl(7H-pyrrolo[2,3-d]pyrimidin-4-yl)amino]cyclohexyl}-methanesulfonamide] | 18.6 nM | 342 nM | 30.5 nM
11 | CN(c1ncnc2[nH]ccc12)[C@H]1CC[C@H](CS(=O)(=O)NC2(Cc3ccccc3)CCC2)CC1 [Example 44, N-(1-benzylcyclobutyl)-1-{trans-4-[methyl(7H-pyrrolo-[2,3-d]pyrimidin-4-yl)amino]-cyclohexyl}methane-sulfonamide] | 15.1 nM | 641 nM | 112 nM

These reach a lower IC50 (JAK1). Values come first.

Row | IC50 (JAK1) | IC50 (JAK3) | IC50 (JAK2) | SMILES
12 | 7.33 nM | 174 nM | 27.5 nM | CN(C)S(=O)(=O)C[C@H]1CC[C@H](N(C)c2ncnc3[nH]ccc23)CC1 [Example 57, N,N-dimethyl((1r,4r)-4-(methyl(7H-pyrrolo[2,3-d]pyrimidin-4-yl)amino)-cyclohexyl)-methanesulfonamide]
13 | 4.44 nM | 137 nM | 11.3 nM | Cc1ccc(CCNS(=O)(=O)C[C@H]2CC[C@H](N(C)c3ncnc4[nH]ccc34)CC2)cc1 [Example 7, N-[2-(4-methylphenyl)-ethyl]-1-{trans-4-[methyl-(7H-pyrrolo[2,3-d]pyrimidin-4-yl)amino]cyclohexyl}-methanesulfonamide]
14 | 3.78 nM | 188 nM | 17 nM | COc1ccccc1CCNS(=O)(=O)C[C@H]1CC[C@H](N(C)c2ncnc3[nH]ccc23)CC1 [Example 5, N-[2-(2-methoxyphenyl)-ethyl]-1-{trans-4-[methyl-(7H-pyrrolo[2,3-d]pyrimidin-4-yl)amino]cyclohexyl}-methanesulfonamide]
15 | 3.67 nM | 154 nM | 19 nM | CN(c1ncnc2[nH]ccc12)[C@H]1CC[C@H](CS(=O)(=O)NCCc2ccc(Cl)cc2)CC1 [Example 31, N-[2-(4-chlorophenyl)ethyl]-1-{trans-4-[methyl(7H-pyrrolo[2,3-d]pyrimidin-4-yl)amino]cyclohexyl}-methanesulfonamide]
16 | 2.87 nM | 87.8 nM | 12 nM | CN(c1ncnc2[nH]ccc12)[C@H]1CC[C@H](CS(=O)(=O)NCCc2ccccc2)CC1 [Example 15, 1-{trans-4-[methyl(7H-pyrrolo-[2,3-d]pyrimidin-4-yl)amino]-cyclohexyl}-N-(2-phenylethyl)-methanesulfonamide]
